Experimental data taken from patent US20240285571A1, “METHODS OF TREATING BONE INFECTIONS” (MICROBION CORPORATION, priority 2020, published 2024).

Tests used:
[1] = tested on: vancomycin-intermediate Staphylococcus aureus; assay: Broth microdilution MIC (Example 6); type: cell-based
Protocol: (§1) Test Compounds: The test agents BisEDT (MB-1-B3; Lot No. ED268-1-11-01), MB-2B, and MB-6 were stored at room temperature, in the dark, until assayed. The solvent and diluent for the test agents was DMSO (Sigma; St. Louis, MO; Lot No. SHBB9319V) and the prepared stock concentration was 6,464 μg/mL (101× the final test concentration).
(§2) Test compounds were evaluated at a concentration range of 0.06-64 μg/mL. For Gram-negative test isolates, amikacin and ceftazidime (alone and with clavulanate at a fixed concentration of 4 μg/mL) were evaluated over a concentration range of 0.06-64 μg/mL; meropenem and levofloxacin were evaluated over a concentration range of 0.008-8 μg/mL. For the testing of S. aureus, clindamycin, daptomycin, levofloxacin and vancomycin were evaluated at a concentration range of 0.008-8 μg/mL; linezolid was tested from 0.03-32 μg/mL.
(§3) Media: Cation-adjusted Mueller Hinton broth (CAMHB; BD; Lot No. 8190586) was used as the medium for testing (2, 3). For testing daptomycin, calcium was supplemented with […] Ca^2+, resulting in a final concentration of […] Ca^2+ (2, 3).
(§4) MIC Assay Procedure: MIC values were determined using a broth microdilution procedure described by CLSI (2, 3). Automated liquid handlers (Multidrop 384, Labsystems, Helsinki, Finland; Biomek 2000 and Biomek F X, Beckman Coulter, Fullerton CA) were used to conduct serial dilutions and liquid transfers.
(§5) To prepare the drug mother plates, which would provide the serial drug dilutions for the replicate daughter plates, the wells of columns 2 through 12 of standard 96-well microdilution plates (Costar 3795) were filled with 150 μl of the appropriate diluent for each row of drug. The test articles and comparator compounds (300 μl at 101× the highest concentration to be tested) were dispensed into the appropriate wells in column 1. The Biomek 2000 was then used to make 2-fold serial dilutions in the mother plates from column 1 through column 11. The wells of column 12 contained no drug and served as the organism growth control wells for the assay.
(§6) The daughter plates were loaded with 190 μL per well of RPMI using the Multidrop 384. The test panels were prepared on the Biomek FX instrument which transferred 2 μL of drug solution from each well of a mother plate to the corresponding well of each daughter plate in a single step.
(§7) A standardized inoculum of each test organism was prepared per CLSI methods to equal a 0.5 McFarland standard, followed by a dilution of 1:20. The plates were then inoculated with 10 μL of the diluted inoculum using the Biomek 2000 from low to high drug concentration resulting in a final concentration of approximately 5×10^5 CFU/mL.
(§8) Plates were stacked 3-4 high, covered with a lid on the top plate, placed into plastic bags, and incubated at 35° C. for 16 to 20 hr (vancomycin was read for S. aureus after 24 hr incubation time). The MIC was recorded as the lowest concentration of drug that inhibited visible growth of the organism.

[2] = tested on: relevant ATCC QC organisms; assay: Broth microdilution MIC, QC (Example 6); type: cell-based; conditions: S. aureus ATCC 29213
Protocol: as §1, §2
Organisms: The test organisms as shown in Tables 11-15 consisted of clinical isolates from the Micromyx (MMX) repository and reference strains from the American Type Culture Collection (ATCC; Manassas, VA), National Collection of Type Cultures (NCTC; Public Health England, Salisbury, UK), the Network on Antimicrobial Resistance in Staphylococcus aureus (NARSA; BEI Resources, Manassas, VA), and the Centers for Disease Control and Prevention (CDC; Atlanta, GA). The test organisms were maintained frozen at −80° C. Prior to testing, the isolates were cultured on Tryptic Soy Agar with 5% sheep blood (BAP; Becton Dickson [BD]/BBL; Sparks, MD; Lot Nos. 9080650 and 9108563) at 35° C. Relevant ATCC quality control (QC) organisms (Table 16) were included during testing in accordance with CLSI guidelines (3). Further details on the genetic characterization of the isolates where available can be found in Table 17.
as §3, §4, §5, §6, §7, §8

[3] = tested on: Streptococcus oralis; assay: MIC of baseline clinical isolates (Example 8); type: cell-based; conditions: Streptococcus oralis baseline isolates (N′ = 1), central laboratory, mITT
Protocol: (§9) Microbiology was assessed on Day 1 and at the time of any subsequent surgical procedure at the index site. Samples were collected from the infected bone site or involved tissue adjacent to any implant(s), swabs of the deep infection site, and the superficial tissue/wound closure/sinus tract site. Isolation and identification of aerobic and anerobic bacteria was conducted at a central microbiology laboratory (IHMA, Schaumburg, IL) and susceptibility of the isolates to MBN-101 (BisEDT) and comparator agents was performed per Clinical and Laboratory Standards Institute (CLSI). Parallel sets of samples were analyzed by the local clinical site laboratory to guide patient antibiotic treatment.

[4] = tested on: Corynebacterium resistens; assay: MIC of baseline clinical isolates (Example 8); type: cell-based; conditions: Corynebacterium resistens baseline isolates (N′ = 1), central laboratory, mITT
Protocol: as §9

[5] = tested on: Corynebacterium amycolatum; assay: MIC of baseline clinical isolates (Example 8); type: cell-based; conditions: Corynebacterium amycolatum baseline isolates (N′ = 1), central laboratory, mITT
Protocol: as §9

[6] = tested on: Dermabacter hominis; assay: MIC of baseline clinical isolates (Example 8); type: cell-based; conditions: Dermabacter hominis baseline isolates (N′ = 1), central laboratory, mITT
Protocol: as §9

[7] = tested on: Corynebacterium jeikeium; assay: MIC of baseline clinical isolates (Example 8); type: cell-based; conditions: Corynebacterium jeikeium baseline isolates (N′ = 2), central laboratory, mITT
Protocol: as §9

[8] = tested on: non-speciated Corynebacterium; assay: MIC of baseline clinical isolates (Example 8); type: cell-based; conditions: Corynebacterium non-speciated baseline isolates (N′ = 2), central laboratory, mITT
Protocol: as §9

[9] = tested on: relevant ATCC QC organisms; conditions: S. aureus ATCC 29213; CLSI established QC range; cited from earlier work
[10] = tested on: Staphylococcus hominis; assay: MIC of baseline clinical isolates (Example 8); type: cell-based; conditions: Staphylococcus hominis baseline isolates (N′ = 1), central laboratory, mITT
Protocol: (§10) Microbiology was assessed on Day 1 and at the time of any subsequent surgical procedure at the index site. Samples were collected from the infected bone site or involved tissue adjacent to any implant(s), swabs of the deep infection site, and the superficial tissue/wound closure/sinus tract site. […] Parallel sets of samples were analyzed by the local clinical site laboratory to guide patient antibiotic treatment.

[11] = tested on: Staphylococcus arlettae; assay: MIC of baseline clinical isolates (Example 8); type: cell-based; conditions: Staphylococcus arlettae baseline isolates (N′ = 1), central laboratory, mITT
Protocol: as §10

[12] = tested on: S. aureus (MRSA, MSSA); assay: MIC of baseline clinical isolates (Example 8); type: cell-based; conditions: Staphylococcus aureus, MRSA baseline isolates (N′ = 4), central laboratory, mITT
Protocol: as §10

[13] = tested on: Staphylococcus pasteuri; assay: MIC of baseline clinical isolates (Example 8); type: cell-based; conditions: Staphylococcus pasteuri baseline isolates (N′ = 1), central laboratory, mITT
Protocol: as §10

[14] = tested on: Staphylococcus lugdunensis; assay: MIC of baseline clinical isolates (Example 8); type: cell-based; conditions: Staphylococcus lugdunensis baseline isolates (N′ = 3), central laboratory, mITT
Protocol: as §10

[15] = tested on: S. epidermidis; assay: MIC of baseline clinical isolates (Example 8); type: cell-based; conditions: Staphylococcus epidermidis baseline isolates (N′ = 5), central laboratory, mITT
Protocol: as §10

[16] = tested on: Staphylococcus haemolyticus; assay: MIC of baseline clinical isolates (Example 8); type: cell-based; conditions: Staphylococcus haemolyticus baseline isolates (N′ = 1), central laboratory, mITT
Protocol: as §10

[17] = tested on: Clostridium sphenoides; assay: MIC of baseline clinical isolates (Example 8); type: cell-based; conditions: Clostridium sphenoides baseline isolates (N′ = 1), central laboratory, mITT
Protocol: as §10

[18] = tested on: Cutibacterium [Propionibacterium] acnes; assay: MIC of baseline clinical isolates (Example 8); type: cell-based; conditions: Cutibacterium (Proprionibacterium) acnes baseline isolates (N′ = 3), central laboratory, mITT
Protocol: as §10

[19] = tested on: F. magna; assay: MIC of baseline clinical isolates (Example 8); type: cell-based; conditions: Finegoldia magna baseline isolates (N′ = 4), central laboratory, mITT
Protocol: as §10

[20] = tested on: Anaerococcus murdochii; assay: MIC of baseline clinical isolates (Example 8); type: cell-based; conditions: Anaerococcus murdochii baseline isolates (N′ = 1), central laboratory, mITT
Protocol: as §10

[21] = tested on: Actinomyces turicensis; assay: MIC of baseline clinical isolates (Example 8); type: cell-based; conditions: Actinomyces turicensis baseline isolates (N′ = 1), central laboratory, mITT
Protocol: as §10

[22] = tested on: Peptoniphilus gorbachii; assay: MIC of baseline clinical isolates (Example 8); type: cell-based; conditions: Peptoniphilus gorbachii baseline isolates (N′ = 1), central laboratory, mITT
Protocol: as §10

[23] = tested on: non-speciated Anaerococcus; assay: MIC of baseline clinical isolates (Example 8); type: cell-based; conditions: Anaerococcus non-speciated baseline isolates (N′ = 1), central laboratory, mITT
Protocol: as §10

## CN[C@H](CC(C)C)C(=O)N[C@H]1C(=O)N[C@@H](CC(N)=O)C(=O)N[C@H]2C(=O)N[C@H]3C(=O)N[C@H](C(=O)N[C@H](C(=O)O)c4cc(O)cc(O)c4-c4cc3ccc4O)[C@H](O)c3ccc(c(Cl)c3)Oc3cc2cc(c3O[C@@H]2O[C@H](CO)[C@@H](O)[C@H](O)[C@H]2O[C@H]2C[C@](C)(N)[C@H](O)[C@H](C)O2)Oc2ccc(cc2Cl)[C@H]1O [VAN]
[1]; S. aureus isolate NRS 1 (hVISA)
  MIC: 4 µg/mL
[1]; S. aureus isolate NRS 2
  MIC: 0.5 µg/mL
[1]; S. aureus isolate NRS 3
  MIC: 8 µg/mL
[1]; S. aureus isolate NRS 4
  MIC: 4 µg/mL
[1]; S. aureus isolate NRS 13
  MIC: 2 µg/mL
[1]; S. aureus isolate NRS 18
  MIC: 4 µg/mL
[1]; S. aureus isolate NRS 22
  MIC: 4 µg/mL
[1]; S. aureus isolate NRS 24 (hVISA)
  MIC: 2 µg/mL
[1]; S. aureus isolate NRS 27
  MIC: 2 µg/mL
[2]
  MIC: 0.5 µg/mL
[3]
  Mean MIC: 0.50 µg/mL
  n (% resistant): 0 (0.0) n (%)
[4]
  Mean MIC: 1.00 µg/mL
  n (% resistant): 0 (0.0) n (%)
[5]
  n (% resistant): 0 (0.0) n (%)
[6]
  Mean MIC: 0.25 µg/mL
  n (% resistant): 0 (0.0) n (%)
[7]
  n (% resistant): 0 (0.0) n (%)
[8]
  Mean MIC: 0.12 µg/mL
  n (% resistant): 0 (0.0) n (%)
[9]
  MIC QC range (in parentheses): (0.5-2) μg/mL
[10]
  Mean MIC: 2.00 µg/mL
  n (% resistant): 0 (0.0) n (%)
[11]
  Mean MIC: 2.00 µg/mL
  n (% resistant): 0 (0.0) n (%)
[12]
  Mean MIC: 1.25 µg/mL
  n (% resistant): 0 (0.0) n (%)
[13]
  Mean MIC: 1.00 µg/mL
  n (% resistant): 0 (0.0) n (%)
[14]
  Mean MIC: 0.83 µg/mL
  n (% resistant): 0 (0.0) n (%)
[15]
  Mean MIC: 150 µg/mL
  n (% resistant): 0 (0.0) n (%)
[16]
  Mean MIC: 1.00 µg/mL

## Cc1ncc([N+](=O)[O-])n1CCO [MTZ]
[17]
  Mean MIC: 0.32 µg/mL
  n (% resistant): 0 (0.0) n (%)
[18]
  Mean MIC: 16.00 µg/mL
  n (% resistant): 3 (100.0) n (%)
[19]
  Mean MIC: 0.56 µg/mL
  n (% resistant): 0 (0.0) n (%)
[20]
  Mean MIC: 1.00 µg/mL
  n (% resistant): 0 (0.0) n (%)
[21]
  Mean MIC: 16.00 µg/mL
  n (% resistant): 1 (100.0) n (%)
[22]
  Mean MIC: 0.50 µg/mL
  n (% resistant): 0 (0.0) n (%)
[23]
  Mean MIC: 16.00 µg/mL
  n (% resistant): 1 (100.0) n (%)
